We go through four compounds from PMC9036627, “Global update on the susceptibility of human influenza viruses to neuraminidase inhibitors, 2013–2014” (Antiviral research, 2015).

The test system of assay [1] is neuraminidase (NA) of B/Victoria-lineage viruses. The class given is biochemical, influenza B/Victoria-lineage virus. The conditions noted are these: B/Victoria-lineage, no NA amino acid substitution (None); n=3; range.
The subject of assay [2] is neuraminidase (NA) of B/Yamagata-lineage viruses. The class given is biochemical, influenza B/Yamagata-lineage virus. The conditions noted are these: for IC50 fold-change compared to reference median IC50 values: B/Yamagata-lineage, no NA amino acid substitution (None), n=3, range.
Assay [3] shares this test system. Also noted: method as in Oakley et al., 2010. The conditions noted are these: B/Yamagata-lineage virus, observed before, ref Oakley et al., 2010; cited from earlier work.

As for `[H]/N=C(\N)N[C@H]1C=C(C(=O)O)O[C@@H]([C@H](OC)[C@H](O)CO)[C@@H]1NC(C)=O` [Laninamivir, laninamivir], the “IC50 fold-change compared to reference median IC50 values” (shortened to “IC50 fold-change”) in assay [1] is reported as 0.7–4.7 fold; in assay [2], 0.6–5.1 fold. For the same compound, the “Included in phenotypic analysis: inhibition category (HRI/RI/NI)” value in assay [2] is “Yes (RI to zanamivir, oseltamivir, peramivir and laninamivir) (key: NI < 5-fold; RI 5 to 50-fold; HRI > 50-fold)”.

On to `CC(=O)N[C@H]1[C@H]([C@H](O)[C@H](O)CO)OC(C(=O)O)=C[C@@H]1N=C(N)N` [Zanamivir, zanamivir], for which the “IC50 fold-change” value is reported as 0.7–8.7 fold in assay [1] and 0.9–5.3 fold in assay [2]. Further, the “inhibition category conferred by NA D197N” value in assay [3] is “RI (RI 5 to 50-fold)”. For the same compound, the “Included in phenotypic analysis: inhibition category (HRI/RI/NI)” value in assay [2] is “Yes (RI to zanamivir, oseltamivir, peramivir and laninamivir) (key: NI < 5-fold; RI 5 to 50-fold; HRI > 50-fold)”.

`CCC(CC)[C@H](NC(C)=O)[C@@H]1[C@H](O)[C@@H](C(=O)O)C[C@H]1N=C(N)N` [Peramivir, peramivir]: the “IC50 fold-change” value in assay [1] was 0.9–6.5 fold; in assay [2], 2.0–7.8 fold. For the same compound, in assay [3], the “inhibition category conferred by NA D197N” value is “RI (RI 5 to 50-fold)”.

Consider `CCOC(=O)C1=C[C@@H](OC(CC)CC)[C@H](NC(C)=O)[C@@H](N)C1` [Oseltamivir, oseltamivir], for which the results for the “IC50 fold-change” value in assay [1] and in assay [2] were 0.6–4.1 fold and 1.7–10 fold, respectively.
